Experimental data published in patent publication US6641707B2, “Biodegradation-resistant electrodepositable coating compositions and methods related thereto” (PPG Industries Ohio, Inc., priority 2001, dated 2003).

Test system: aerobic heterotrophs
Experiment: Bacteria Resistance Testing: acids added to infected electrodeposition permeate, spread plate count on R2A agar
Type: cell-based
Conditions: reactors rolled at 32° C.; for Bacteria Count 3 day: plated at 3 days; for Bacteria Count 7 day: plated at 7 days; for Bacteria Count 10 day: plated at 10 days
Experimental: Infected rinsewater from an online electrodeposition bath tank (containing E6100, commercially available from PPG Industries, Inc.) having a bacterial count of 1.5×10^6 cfu/mL was used to inoculate filter-sterilized ultrafiltrate (“permeate”) collected from the same line. The infected rinsewater was diluted by a factor of 10^3 into the sterile permeate. The infected permeate was added to reactors. The various acids listed below in the following Table 2 were prepared as 1% solutions in water and tested at 1000, 500, and 200 ppm of active material. Reactors were rolled for 10 days at 32° C. and were plated for bacteria counts at 3, 7, and 10 days.
The enumeration of aerobic heterotrophs in the reactors utilized the standard spread plate method as described in Standard Methods for the Examination of Water and Wastewater, 1992, section 9215C. Bacterial counts were examined using R2A agar plates. 100 μL of a suitable dilution of sample was pipetted onto the surface of the media and spread with an alcohol and flame sterilized glass rod. The plates were inverted and incubated for 3 days at 32° C. with periodic examination. Colony forming units were counted on a New Brunswick Bactronic Colony Counter. A target of 30 to 300 cfu per plate was considered a valid count.

[1] = acid at 200 ppm of active material
[2] = acid at 500 ppm of active material
[3] = acid at 1000 ppm of active material

Row | SMILES | Bacteria Count 3 day [1] | Bacteria Count 7 day [1] | Bacteria Count 10 day [1] | Bacteria Count 3 day [2] | Bacteria Count 7 day [2] | Bacteria Count 10 day [2] | Bacteria Count 3 day [3] | Bacteria Count 7 day [3] | Bacteria Count 10 day [3]
1 | CCCCOCC(=O)O [Butoxyacetic, butoxyacetic acid] | 3.0 × 10^6 | 1.2 × 10^7 | 5.6 × 10^7 | <4.0 × 10^1 | <4.0 × 10^1 | <4.0 × 10^1 | <4.0 × 10^1 | <4.0 × 10^1 | <4.0 × 10^1
2 | CC(O)C(=O)O (stereo not drawn) [Lactic, lactic acid, reference compound] |  |  |  | 7.2 × 10^7 | 7.8 × 10^7 | 2.4 × 10^7 | 2.4 × 10^7 | 5.0 × 10^7 | 2.3 × 10^7
3 | COCCOCCOCC(=O)O [2-[2-(2-methoxyethoxy)-ethox]acetic, 2-[2-(methoxyethoxy)ethoxy]acetic acid] | 3.2 × 10^6 | 4.0 × 10^7 | 5.2 × 10^7 | <4.0 × 10^1 | >1.2 × 10^4 | 6.4 × 10^6 | <4.0 × 10^1 | <4.0 × 10^1 | <4.0 × 10^1
4 | O=C(O)COc1ccccc1 [Phenoxyacetic, phenoxyacetic acid] | 4.0 × 10^6 | 8.0 × 10^6 | 3.2 × 10^7 | <4.0 × 10^1 | <4.0 × 10^1 | <4.0 × 10^1 | <4.0 × 10^1 | <4.0 × 10^1 | <4.0 × 10^1
5 | CCOCC(=O)O [Ethoxyacetic, ethoxyacetic acid] | 1.3 × 10^6 | 3.2 × 10^7 | 4.8 × 10^7 | <4.0 × 10^1 | <4.0 × 10^1 | <4.0 × 10^1 | <4.0 × 10^1 | <4.0 × 10^1 | <4.0 × 10^1
6 | COCCOCC(=O)O [2-(2-methoxyethoxy)acetic, 2-(2-methoxyethoxy)acetic acid] | 8.0 × 10^6 | 2.8 × 10^7 | 2.3 × 10^7 | <4.0 × 10^1 | >1.2 × 10^4 | 4.0 × 10^6 | <4.0 × 10^1 | <4.0 × 10^1 | <4.0 × 10^1
7 | COCC(=O)O [Methoxyacetic, methoxyacetic acid] | <4.0 × 10^1 | <4.0 × 10^2 | <4.0 × 10^1 | <4.0 × 10^1 | <4.0 × 10^1 | <4.0 × 10^1 | <4.0 × 10^1 | <4.0 × 10^1 | <4.0 × 10^1
